Assay results published in ChEMBL document CHEMBL4304785, “Recent advances of analogues of curcumin for treatment of cancer” (Eur J Med Chem, 2019).

Assays:
SK-OV-3 [1] = assay: Induction of apoptosis in human SKOV3 cells at 20 umol/L after 48 hrs by annexin-V-FITC/propidium iodide staining-based flow cytometric method relative to control; format: functional
SK-OV-3 [2] = assay: Induction of apoptosis in human SKOV3 cells at 40 umol/L after 48 hrs by annexin-V-FITC/propidium iodide staining-based flow cytometric method relative to control; format: functional
SK-OV-3 [3] = assay: Induction of apoptosis in human SKOV3 cells at 80 umol/L after 48 hrs by annexin-V-FITC/propidium iodide staining-based flow cytometric method relative to control; format: functional
MDA-MB-231 = assay: Increase in MMP3 level in human MDA-MB-231 cells after 24 hrs by ELISA; format: functional, cell-based; conditions: MDA-MB-231, 24 h
HT-1080 [4] = assay: Decrease in UPA expression in human HT1080 cells; format: functional, cell-based
MCF7R [5] = assay: Cytotoxicity against human MCF7/R cells at 10 uM after 72 hrs by MTS assay relative to control; format: functional
MCF7R [6] = assay: Cytotoxicity against human MCF7/R cells after 72 hrs in presence of curcumin by MTS assay relative to control; format: functional
HepG2 [7] = assay: Induction of apoptosis in human HepG2 cells relative to control; format: functional, cell-based
U-937 = assay: Induction of apoptosis in human U937 cells relative to control; format: functional, cell-based
HL-60 = assay: Induction of apoptosis in human HL60 cells relative to control; format: functional, cell-based
3LL cell line = assay: Induction of apoptosis in mouse 3LL cells relative to control; format: functional, cell-based
[8] = Induction of apoptosis in human SNUC5 cells relative to control; format: functional, cell-based
HT-1080 [9] = assay: Antioxidant activity in human HT1080 cells at 100 umol/L by measuring TBARS level by spectrophotometric method relative to control; format: functional
MCF7 = assay: Cell cycle arrest in human MCF7 cells by propidium iodide staining-based flow cytometric method; format: functional
A549 = assay: Cell cycle arrest in human A549 cells by propidium iodide staining-based flow cytometric method; format: functional
DU-145 = assay: Cell cycle arrest in human DU145 cells by propidium iodide staining-based flow cytometric method; format: functional
KB = assay: Cell cycle arrest in human KB cells by propidium iodide staining-based flow cytometric method; format: functional
SGC-7901 = assay: Antiproliferative activity against human SGC7901 cells by MTT assay; format: functional, cell-based
U-251 = assay: Antiproliferative activity against human U251 cells by MTT assay; format: functional, cell-based
NCI-H460 = assay: Antiproliferative activity against human H460 cells by MTT assay; format: functional, cell-based
L02 = assay: Antiproliferative activity against human HL7702 cells by MTT assay; format: functional, cell-based
Caco-2 [10] = assay: Cytotoxicity against human Caco2 cells by MTT/SRB assay; format: functional, cell-based
HT-29 [11] = assay: Cytotoxicity against human HT-29 cells by MTT/SRB assay; format: functional, cell-based
HepG2 [12] = assay: Cytotoxicity against human HepG2 cells by MTT/SRB assay; format: functional, cell-based
CHO-K1 = assay: Cytotoxicity against CHOK1 cells by MTT/SRB assay; format: functional, cell-based; conditions: Cricetulus griseus
HT-29 [13] = assay: Cytotoxicity against human HT-29 cells after 4 hrs by MTT assay; format: functional, cell-based; conditions: HT-29, 4 h
SW480 = assay: Cytotoxicity against human SW480 cells after 4 hrs by MTT assay; format: functional, cell-based; conditions: SW480, 4 h
KM12 = assay: Cytotoxicity against human KM12 cells after 4 hrs by MTT assay; format: functional, cell-based; conditions: KM12, 4 h
[14] = Cytotoxicity against human SW116 cells after 4 hrs by MTT assay; format: functional, cell-based; conditions: SW116, 4 h
WiDr = assay: Cytotoxicity against human WiDr cells after 4 hrs by MTT assay; format: functional, cell-based
Colon 26 = assay: Cytotoxicity against mouse Colon 26 cells after 4 hrs by MTT assay; format: functional, cell-based; conditions: Colon 26, 4 h, read-out: IC50
Caco-2 [15] = assay: Cytotoxicity against human Caco2 cells by MTT assay; format: functional, cell-based
A-431 = assay: Cytotoxicity against human A431 cells after 72 hrs by MTT assay; format: functional, cell-based; conditions: A-431, 72 h
[16] = Cytotoxicity against human BCC cells after 72 hrs by MTT assay; format: functional, cell-based
SCC-25 = assay: Cytotoxicity against human SCC25 cells after 72 hrs by MTT assay; format: functional, cell-based; conditions: SCC-25, 72 h
A-375 = assay: Cytotoxicity against human A375 cells after 72 hrs by MTT assay; format: functional, cell-based; conditions: A-375, 72 h
[17] = Cytotoxicity against […] cells after 72 hrs by MTT assay; format: functional, cell-based; conditions: B16, 72 h
[18] = molecular target: 72 kDa type IV collagenase (Homo sapiens) (UniProt P08253); assay: Inhibition of MMP2 (unknown origin)
72 kDa type IV collagenase (Homo sapiens), sequence (P08253 110-660 limits assumed): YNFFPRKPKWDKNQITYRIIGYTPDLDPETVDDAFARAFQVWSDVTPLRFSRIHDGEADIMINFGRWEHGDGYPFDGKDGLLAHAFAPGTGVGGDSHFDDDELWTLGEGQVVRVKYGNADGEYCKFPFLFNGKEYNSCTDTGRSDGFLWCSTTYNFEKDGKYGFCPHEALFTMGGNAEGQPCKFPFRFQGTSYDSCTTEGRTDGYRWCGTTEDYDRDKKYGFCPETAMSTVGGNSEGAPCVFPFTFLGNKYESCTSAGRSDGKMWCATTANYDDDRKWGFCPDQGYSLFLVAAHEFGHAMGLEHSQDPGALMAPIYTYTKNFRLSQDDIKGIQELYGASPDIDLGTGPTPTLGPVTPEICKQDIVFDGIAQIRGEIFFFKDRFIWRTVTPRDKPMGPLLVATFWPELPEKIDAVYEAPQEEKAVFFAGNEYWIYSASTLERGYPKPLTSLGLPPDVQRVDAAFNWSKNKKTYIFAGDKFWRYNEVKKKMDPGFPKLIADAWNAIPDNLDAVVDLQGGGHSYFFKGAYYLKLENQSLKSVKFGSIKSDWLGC

For `COc1cc(/C=C/C(=O)CC(=O)/C=C/c2ccc(O)cc2)ccc1O`, which Activity (SK-OV-3 [1]) is on record?
Its Activity is 35.1%.

What about the Activity (SK-OV-3 [2]) of the same compound?
Its Activity is 51.5%.

And the Activity (SK-OV-3 [3])?
Its Activity is 70.7%.

What about the IC50 (MDA-MB-231) of the same compound?
Its IC50 is 9 µM.

What about the IC50 (HT-1080 [4]) of the same compound?
The IC50 was 7.5 µM.

For `COc1cc(/C=C/c2cc(/C=C/c3ccc(O)c(OC)c3)on2)ccc1O`, which inhibition at 10 µM (MCF7R [5]) is on record?
The inhibition at 10 µM was 57.8%.

What about the “inhibition (INH)” value (MCF7R [6]) of the same compound?
Its value is 57.6%.

Which IC50 (HepG2 [7]) does the source give for `C/C=C/c1ccc(O)c(OC)c1` here?
Its IC50 is 119 µM.

What about the IC50 (U-937) of the same compound?
Its IC50 is 39.4 µM.

What about the IC50 (HL-60) of the same compound?
The IC50 was 23.7 µM.

And the IC50 (3LL cell line)?
Its IC50 is 89.6 µM.

What about the IC50 [8] of the same compound?
The IC50 was 129 µM.

What about the Activity (HT-1080 [9]) of the same compound?
Its Activity is 70%.

And the IC50 (MCF7)?
The IC50 was 40.7 µM.

And the IC50 (A549)?
The IC50 was 33.5 µM.

What about the IC50 (DU-145) of the same compound?
The IC50 was 33.2 µM.

What about the IC50 (KB) of the same compound?
The IC50 was 38.6 µM.

What does the source list for `O=C1/C(=C/c2ccccc2F)CNC/C1=C\c1ccccc1F`?
IC50 (SGC-7901): 6.5 µM; IC50 (U-251): 4.5 µM; IC50 (NCI-H460): 6 µM; IC50 (L02): 5.8 µM

Which IC50 (Caco-2 [10]) does the source give for `O=C(/C=C(O)/C=C/c1c[nH]c2ccccc12)/C=C/c1c[nH]c2ccccc12` here?
The IC50 was 3.3 to 12.1 µM.

And the IC50 (HT-29 [11])?
Its IC50 is 3.3 to 12.1 µM.

And the IC50 (HepG2 [12])?
Its IC50 is 3.3 to 12.1 µM.

What about the IC50 (CHO-K1) of the same compound?
The IC50 was 3.3 to 12.1 µM.

Which IC50 (HT-29 [13]) does the source give for `COc1cc(/C=C/C(=O)C(Cc2ccc(O)c(OC)c2)C(=O)/C=C/c2ccc(O)c(OC)c2)ccc1O` here?
The IC50 was 5.42 µM.

What about the IC50 (SW480) of the same compound?
The IC50 was 4.78 µM.

What about the IC50 (KM12) of the same compound?
The IC50 was 3.9 µM.

What about the IC50 [14] of the same compound?
Its IC50 is 7.08 µM.

And the IC50 (WiDr)?
Its IC50 is 7.32 µM.

What about the IC50 (Colon 26) of the same compound?
The IC50 was 8.91 µM.

With `CCOC(=O)CCC(=O)Oc1ccc(/C=C/C(=O)/C=C(O)/C=C/c2ccc(OC(=O)CCC(=O)OCC)c(OC)c2)cc1OC` as the compound, how does the IC50 (Caco-2 [15]) read?
The IC50 was 1.84 µM.

Which results are given for `COc1cc(CCC(=O)CCCCc2ccccc2)ccc1O`?
IC50 (A-431): 13.3 µM; IC50 [16]: 11.3 µM; IC50 (SCC-25): 18.7 µM; IC50 (A-375): 23.8 µM; IC50 [17]: 40 µM

Which INH [18] does the source give for `CCCCC[C@H](O)CC(=O)CCc1ccc(O)c(OC)c1` here?
The INH was greater than 10 µmol/L.
